The values that follow come from article PMC12723449, “From Pharmacophore to Warhead: NAD^+‐Targeting Triazoles as Mechanism‐Based Sirtuin Inhibitors” (Angewandte Chemie (International Ed. in English), 2025).

The target of test [1] is T1, HEK293T cells overexpressing a NanoLuc–SIRT2 fusion protein (Homo sapiens, UniProt Q8IXJ6).
T1 construct: transfected HEK293T cells expressing the NanoLuc-tagged SIRT250-356 fusion protein were used instead of transient; expressed in transfected cells; host or cells: HEK293T (stably transfected)
T1 sequence (Q8IXJ6 50-356 limits assumed): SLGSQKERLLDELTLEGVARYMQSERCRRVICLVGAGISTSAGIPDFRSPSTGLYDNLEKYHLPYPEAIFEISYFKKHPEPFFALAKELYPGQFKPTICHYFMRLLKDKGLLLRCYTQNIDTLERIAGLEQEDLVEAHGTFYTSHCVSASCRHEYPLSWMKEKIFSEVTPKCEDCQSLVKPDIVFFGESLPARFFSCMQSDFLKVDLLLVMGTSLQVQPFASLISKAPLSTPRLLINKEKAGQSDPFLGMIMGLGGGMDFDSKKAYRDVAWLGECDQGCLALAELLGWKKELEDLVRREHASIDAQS
The experiment in a line: CE-ESI-MS analysis of adducts formed in cellulo. Particulars: 20 µM, 3 h. It is filed as cell-based.

Another test relates to α‐tubulin. Also on record: method as in PMID 35441145. Particulars: cited from earlier work.
The target of test [2] is T2, SIRT2 (Homo sapiens, UniProt Q8IXJ6).
T2 construct: For assay experiments, strep-tagged human SIRT1134−747 and SIRT256-356 were expressed and purified as previously; Strep-tag; made in house; host or cells: E. coli BL21 Star (DE3)
T2 sequence (Q8IXJ6 56-356 limits assumed): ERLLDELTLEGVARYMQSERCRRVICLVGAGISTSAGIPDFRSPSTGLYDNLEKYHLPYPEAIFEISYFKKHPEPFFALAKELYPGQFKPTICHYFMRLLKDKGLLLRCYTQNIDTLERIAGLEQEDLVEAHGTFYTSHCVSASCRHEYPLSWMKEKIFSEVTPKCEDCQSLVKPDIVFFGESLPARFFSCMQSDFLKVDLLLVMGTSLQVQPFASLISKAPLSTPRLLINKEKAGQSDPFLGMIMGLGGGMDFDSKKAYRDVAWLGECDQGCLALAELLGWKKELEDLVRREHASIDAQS
The experiment in a line: Kinetic analysis via continuous enzyme demyristoylation inhibition assay. Format: biochemical. As to conditions: myristoylated substrate, two-step inhibition model; read-out: K I app. Here is the method: solution was diluted 100-fold to a total volume of 40 µL with substrate (final concentration of 40 nM), NAD+ (final concentration of 500 µM) and DMSO (final concentration of 5 % (v/v)) and transferred to a black 384-well microplate (Optiplate 384 F, PerkinElmer). For NAD+ preincubation, 0.1 µL of inhibitor solution (40× IC50, […] after jump dilution), 0.1 µL of SIRT2 (400 nM, final concentration of 1 nM after jump dilution) and 0.2 µL of NAD+ ([…] concentration of 500 µM after jump dilution) were preincubated for 30 min. […] The change in fluorescence was monitored with a microplate reader (λEx = 485 nm, λEm = 530-10 nm, BMG POLARstar Optima, BMG Labtech, Germany) every 30 s for 20 min. […] Reaction rates were obtained from the slope of the fluorescence signal over time and converted to product concentration using calibration curves, assuming equal fluorescence intensities for substrate and product, as […]
Ft = time-dependent signal resulting from product formation (in µM, calculated from AU values), F0 = Y-intercept = background signal at reaction initiation (in µM, calculated from AU values), vi = initial product formation velocity (in µM/min), vs = final/steady-state product formation velocity (in µM/min), t = incubation time after enzyme addition (in min), kobs = observed rate of time-dependent inhibition from initial vi to final vs (in min-1). […]

Test [3] has as its target T2, SIRT2. The experiment in a line: Jump-dilution assay. It is filed as biochemical.

Regarding `Cc1cc(C)nc(SCC(=O)Nc2ncc(Cc3cccc(OCc4c[nH]nn4)c3)s2)n1` [Compound 7], the “ADPR adduct formation in cells by CE-ESI-MS/MS” value in test [1] was “confirmed formation of 7–ADPR in cellulo”.

For `COCCn1cc(COc2cccc(Cc3cnc(NC(=O)CSc4nc(C)cc(C)n4)s3)c2)nn1` [Compound 1, reference compound], the α-tubulin hyperacetylation result in the test on α‐tubulin is given as “pronounced α‐tubulin hyperacetylation”.

In the case of `CCCCCCCCCCCCc1cn(CCCC[C@H](NC(=O)[C@H](CCCCN)NC(=O)[C@@H]2CCCN2C(=O)[C@H](CC(C)C)NC(=O)[C@H](C)NC(=O)[C@H](CCC(=O)O)NC(C)=O)C(=O)N[C@H](C(=O)NCC(=O)NCC(N)=O)[C@@H](C)O)nn1` [Compound 6], the Ki at SIRT2 [2] was found to be 24.7 µM. Also, the “SIRT2 enzymatic activity after jump dilution” value was 13% on SIRT2 [3] (preincubation of SIRT2 with compound and NAD+ (30 min), 1:100 dilution to 4 nM); 72% at SIRT2 [3] (without NAD+ preincubation, 1:100 dilution).
